Data: patent publication US9670242B2, “Tetracyclic anthraquinone derivatives” (Tianjin Hemay Bio-Tech Co., Ltd, priority 2012, dated 2017)

Columns and labels:
BxPc-3 cells = test: BxPc-3 cell growth inhibition test (MTT assay); type: cell-based, human; conditions: growth inhibition at 2000 nM, 70 h
Summary of the method: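 BxPC-3 human pancreatic cancer cells at 5000 per well in RPMI-1640 with 10% FBS were treated with compound from day 2 for 70 h at 37 °C, 5% CO2. Viability was measured by MTT (0.5 mg/mL, 3 h) with DMSO solubilisation and OD 490 nm. Inhibition ratio = (PC−n)/(PC−NC)×100%.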

22Rv1 cells = test: 22Rv1 cell growth inhibition test (SRB assay); type: cell-based, human; conditions: growth inhibition at 222 nM, 73 h
Summary of the method: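 Human prostate cancer 22Rv1 cells seeded at 7000 cells/well, incubated overnight, then exposed to compound for 73 h at 37° C, 5% CO2. TCA-fixed cells stained with SRB, dye dissolved in 10 mM Tris, OD read at 570 nm. Inhibition = (PC−n)/(PC−NC)×100% against untreated and cell-free blank wells.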

A431 cells = test: A431 cell growth inhibition test (MTT assay); type: cell-based, human; conditions: 72 h
Procedure: A431 Cell Growth Inhibition Test (MTT Assay)
(§1) II. Reagents and Consumable Materials
Culture medium: 45% DMEM+45% F12+10% FBS (fetal calf serum); Pancreatin (0.25% (w/v) solution was formulated with PBS, 0.53 mM of EDTA was added in the formulation); PBS; 96-well culture plate.
(§2) 1. A plate (10 cm) of cells in logarithmic growth phase that were normally cultured was collected;
(§3) 2. The culture solution was sucked out. The plate was washed with 5 mL of PBS once or twice;
(§4) 3. PBS was sucked out. 1.5 mL of 0.25% pancreatin was added to the plate to infiltrate the cells for 1 min;
4. The culture plate was placed in an incubator. Digestion was carried out for about 5 min at 37° C.;
(§5) 5. 3 mL of complete culture solution was added to the culture plate to stop the digestion. The cells were carefully scoured with micropipette (1 mL) to give a uniform cell suspension. The suspension was implanted into a 96-well cell culture disc by 2500 cells/100 μL per well. The culture plate was incubated overnight under 5% CO2 at 37° C. In day 2, 100 μL of culture solution comprising a compound was added in each well. The plate was further incubated for 72 h under 5% CO2 at 37° C.;
(§6) 6. The culture solution was sucked out;
(§7) 7. 100 μL of serum-free culture solution containing 0.5 mg/mL MTT was added in each well. The plate was incubated for 3 h;
(§8) 8. The culture solution was carefully sucked out;
(§9) 9. 100 μL of DMSO was added in each well and vibrated to dissolve;
(§10) 10. OD values were determined at 490 nM.
(§11) IV. Results and Treatments
(§12) 1. Calculation of Relative Inhibition Ratio The inhibition ratio of a compound on cell growth=(PC−n)/(PC−NC)×100%
(§13) PC: OD values of cells after normal growth in control wells without a compound;
(§14) n: OD values of cells after growth in test wells with a compound;
(§15) NC: Background OD values of blank wells without a compound and cells.

B16 cells = test: B16 cell growth inhibition test (MTT assay); type: cell-based, mouse; conditions: 72 h
Procedure: B16 Cell Growth Inhibition Test (MTT Assay)
as §1
Culture medium: 90% RPMI1640+10% FBS (fetal calf serum); Pancreatin (0.25% (w/v) solution was formulated with PBS, 0.53 mM of EDTA was added in the formulation); PBS; 96-well culture plate.
as §2, §3, §4
(§16) 4. The culture plate was placed in an incubator. Digestion was carried out for about 1 min at 37° C.;
as §5, §6
7. 100 μl of serum-free culture solution containing 0.5 mg/mL MTT was added in each well. The plate was incubated for 3 h;
as §8, §9, §10, §11, §12, §13, §14, §15

DU-145 cells = test: DU-145 cell growth inhibition test (MTT assay); type: cell-based; conditions: 72 h
Procedure: DU-145 Cell Growth Inhibition Test (MTT Assay)
as §1
Culture medium: 90% EMEM+10% FBS (fetal calf serum); Pancreatin (0.25% (w/v) solution was formulated with PBS, 0.53 mM of EDTA was added in the formulation); PBS; 96-well culture plate.
as §2, §3, §4, §16
as §5, with “4000” for “2500”
as §6, §7, §8, §9, §10, §11, §12, §13, §14, §15

| Structure (SMILES) | Inhibition Ratio (%) (BxPc-3 cells) | Inhibition Ratio (%) (22Rv1 cells) | IC50 (A431 cells) | IC50 (B16 cells) | IC50 (DU-145 cells) |
| --- | --- | --- | --- | --- | --- |
| CC(=O)O.COc1cccc2c1C(=O)c1c(O)c3c(c(O)c1C2=O)CC(O)(C(=O)COC(=O)CCC(=O)NCCCN1CCN(C)CC1)CC3O[C@H]1C[C@H](n2cccc2)[C@H](O)[C@H](C)O1 (stereo partly drawn) [Example 81, 10-((3′-(pyrrol-1-yll)-2′,3′,6′-trideoxy-alphal-l-lyxo-hexylpyranyl)oxy)-7,8,9,10-tetrahydro-6,8,11-trihydroxy-13-oxo-14-(4-((3-(4-methylpiperazin-1-yl)propyl)amino)-4-oxo-butyrato)-1-methoxy-5,12-naphthalenedione acetate] | 80.7% | 56.5% | 42 nM | – | – |
| COc1cccc2c1C(=O)c1c(O)c3c(c(O)c1C2=O)CC(O)(C(=O)COC(=O)CCC(=O)O)CC3OC1CC(n2cccc2)C(O)C(C)O1 (stereo not shown) [Compound A, 3′-pyrrolyldoxorubicin-14-oxo-succinic acid monoester, reference compound] | – | – | 68 nM | 32 nM | 99 nM |
| COc1cccc2c1C(=O)c1c(O)c3c(c(O)c1C2=O)CC(O)(C(=O)COC(=O)CCC(=O)NCCOCCO)CC3OC1CC(n2cccc2)C(O)C(C)O1 (stereo not shown) [Example 62] | 82.5% | 57% | – | 3 nM | 34 nM |
